In BindingDB's records for doi:10.1016/j.bmcl.2008.08.095 (Sunesis Pharmaceuticals, 2008):

Target: Focal adhesion kinase 1 (Homo sapiens, UniProt Q05397)
Sequence (Q05397 whole entry): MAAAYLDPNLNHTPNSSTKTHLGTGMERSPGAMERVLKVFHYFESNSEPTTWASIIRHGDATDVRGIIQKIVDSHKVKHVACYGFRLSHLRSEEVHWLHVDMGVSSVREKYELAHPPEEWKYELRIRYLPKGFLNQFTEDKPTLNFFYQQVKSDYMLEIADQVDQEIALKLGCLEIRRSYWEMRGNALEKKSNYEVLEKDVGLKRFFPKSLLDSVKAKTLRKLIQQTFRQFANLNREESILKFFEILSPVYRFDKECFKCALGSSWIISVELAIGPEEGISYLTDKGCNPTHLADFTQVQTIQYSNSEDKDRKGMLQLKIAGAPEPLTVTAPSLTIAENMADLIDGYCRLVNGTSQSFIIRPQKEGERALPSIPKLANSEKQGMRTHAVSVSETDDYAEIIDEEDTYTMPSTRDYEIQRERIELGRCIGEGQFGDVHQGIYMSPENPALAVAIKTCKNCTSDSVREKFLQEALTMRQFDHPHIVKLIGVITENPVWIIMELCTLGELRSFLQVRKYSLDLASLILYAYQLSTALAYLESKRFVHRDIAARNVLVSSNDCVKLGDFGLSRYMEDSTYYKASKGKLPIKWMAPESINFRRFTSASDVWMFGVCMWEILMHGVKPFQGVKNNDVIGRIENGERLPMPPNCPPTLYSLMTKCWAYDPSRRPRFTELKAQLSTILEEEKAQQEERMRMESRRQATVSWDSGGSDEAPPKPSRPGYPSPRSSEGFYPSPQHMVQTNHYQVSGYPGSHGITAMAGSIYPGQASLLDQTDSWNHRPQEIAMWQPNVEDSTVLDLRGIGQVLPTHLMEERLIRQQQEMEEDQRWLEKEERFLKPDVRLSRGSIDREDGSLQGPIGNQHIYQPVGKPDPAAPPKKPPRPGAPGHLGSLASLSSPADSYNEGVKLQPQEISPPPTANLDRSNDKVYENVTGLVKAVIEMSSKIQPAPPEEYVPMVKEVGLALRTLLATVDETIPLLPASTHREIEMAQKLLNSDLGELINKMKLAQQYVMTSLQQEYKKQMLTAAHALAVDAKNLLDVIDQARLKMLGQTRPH

IC50	Structure (SMILES)
7.46 µM	Cc1nn(-c2cc(Cl)cc(CCC(N)=O)c2)c2cc(N[C@@H](C)c3ccccc3)ncc12 [3-[3-chloro-5-(3-methyl-6-{[(1S)-1-phenylethyl]amino}-1H-pyrazolo[4,3-c]pyridin-1-yl)phenyl]propanamide]
6.28 µM	CC(=O)Nc1ccccc1-c1cc(Cl)cc(-n2nc(C)c3cnc(N[C@@H](C)c4ccccc4)cc32)c1 [N-{2-[3-chloro-5-(3-methyl-6-{[(1S)-1-phenylethyl]amino}-1H-pyrazolo[4,3-c]pyridin-1-yl)phenyl]phenyl}acetamide]
